IC50 data for 13 compounds are collected here from US20250179078A1, “INHIBITORS OF NLRP3” (PTC THERAPEUTICS, INC., priority 2022, published 2025).

Each structure is given as a SMILES string.

T1 sequence (Q96P20 whole entry): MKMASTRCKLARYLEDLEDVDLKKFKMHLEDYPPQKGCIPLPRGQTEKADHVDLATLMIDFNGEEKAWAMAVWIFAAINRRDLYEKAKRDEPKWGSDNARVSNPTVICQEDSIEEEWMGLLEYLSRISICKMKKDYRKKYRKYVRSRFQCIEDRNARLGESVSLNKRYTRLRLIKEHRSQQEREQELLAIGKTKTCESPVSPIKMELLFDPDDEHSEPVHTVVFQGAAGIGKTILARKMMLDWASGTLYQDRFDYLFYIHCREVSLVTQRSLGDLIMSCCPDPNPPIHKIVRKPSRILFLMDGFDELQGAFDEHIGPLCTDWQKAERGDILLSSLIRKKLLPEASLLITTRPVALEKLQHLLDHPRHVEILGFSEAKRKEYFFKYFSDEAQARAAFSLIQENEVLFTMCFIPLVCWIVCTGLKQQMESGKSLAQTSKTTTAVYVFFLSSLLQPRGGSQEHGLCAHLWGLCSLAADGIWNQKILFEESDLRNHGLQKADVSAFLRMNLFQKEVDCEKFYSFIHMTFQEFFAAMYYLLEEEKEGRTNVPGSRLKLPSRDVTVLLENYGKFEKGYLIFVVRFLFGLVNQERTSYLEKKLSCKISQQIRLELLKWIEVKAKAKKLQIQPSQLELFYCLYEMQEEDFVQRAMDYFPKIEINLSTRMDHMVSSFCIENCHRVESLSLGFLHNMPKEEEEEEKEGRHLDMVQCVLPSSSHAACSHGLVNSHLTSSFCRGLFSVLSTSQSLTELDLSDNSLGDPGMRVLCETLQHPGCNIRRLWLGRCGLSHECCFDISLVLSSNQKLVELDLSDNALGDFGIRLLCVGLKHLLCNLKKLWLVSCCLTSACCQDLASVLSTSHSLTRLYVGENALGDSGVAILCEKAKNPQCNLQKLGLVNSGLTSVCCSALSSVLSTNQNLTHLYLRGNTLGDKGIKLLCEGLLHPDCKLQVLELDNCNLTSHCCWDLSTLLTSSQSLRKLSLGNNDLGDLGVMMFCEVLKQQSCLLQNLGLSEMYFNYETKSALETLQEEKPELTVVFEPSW

The test has as its target T1, NLRP3 (Homo sapiens, UniProt Q96P20).
T1 construct: host or cells: THP-1 cells differentiated with PMA
In words: IL-1β Secretion Assay (NLRP3-dependent IL1β secretion in THP1 cells). The test is classed as cell-based. Particulars: PMA-differentiated THP-1 cells; compounds incubated 20 h; 2.5 μM Nigericin 3 h; HTRF IL-1β readout; read-out: IC50 IL-1β Inhibition. In short, it runs like this: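 IL-1β in conditioned media, measured by HTRF after 3 h 2.5 μM nigericin stimulation, gave % inhibition fitted logistically for IC50. Before that, PMA-differentiated (100 ng/mL, 24 h) THP-1 cells were preincubated 20 h with 7 compound concentrations (3-fold serial, DMSO 1:200).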
A word on the IC50: it is the point on the concentration scale where inhibition reaches its midpoint. Turning to `CCN1CC[C@@H](O)[C@@H](Nc2nnc(-c3ccc(OC)cc3OC(F)(F)F)c3cc(C)cn23)C1` [Compound 135, (3S,4R)-1-ethyl-3-({1-[4-methoxy-2-(trifluoromethoxy)phenyl]-7-methylpyrrolo[1,2-d][1,2,4]triazin-4-yl}amino)piperidin-4-ol], the IC50 was under 1 nM. As to `CN1C[C@H](F)C[C@@H](Nc2nnc(-c3ccc(Cl)cc3OC(F)F)c3cncn23)C1` [Compound 193, 1-[4-chloro-2-(difluoromethoxy)phenyl]-N-[(3R,5R)-5-fluoro-1-methylpiperidin-3-yl]imidazo[1,5-d][1,2,4]triazin-4-amine], the IC50 fell in the range of 1 to 10 nM. Take `COc1ccc(-c2nnc(N[C@@H]3CCCN(C)C3)n3cccc23)c(C2CC2)c1` [Compound 27, 1-(2-cyclopropyl-4-methoxyphenyl)-N-[(3R)-1-methylpiperidin-3-yl]pyrrolo[1,2-d][1,2,4]triazin-4-amine]: the half-maximal inhibitory concentration (IC50) lay within 1 to 10 nM. The figure for `COc1ccc(-c2nnc(NC(C)c3cccnc3)n3cncc23)c(OC(F)(F)F)c1` (stereo not shown) [Compound 232, 1-[4-methoxy-2-(trifluoromethoxy)phenyl]-N-[1-(pyridin-3-yl)ethyl]imidazo[1,5-d][1,2,4]triazin-4-amine] is 100 to 300 nM; for `OCCN1CCC[C@@H](Nc2nnc(-c3ccc(C(F)(F)F)cc3C(F)(F)F)c3c(F)ccn23)C1` [Compound 30, 2-[(3R)-3-({1-[2,4-bis(trifluoromethyl)phenyl]-8-fluoropyrrolo[1,2-d][1,2,4]triazin-4-yl}amino)piperidin-1-yl]ethan-1-ol] it is 1 to 10 nM; for `OCCN1CCC[C@@H](Nc2nnc(-c3ccc(C(F)(F)F)cc3OC3CC3)c3cccn23)C1` [Compound 179, 2-[(3R)-3-({1-[2-(cyclopropyloxy)-4-(trifluoromethyl)phenyl]pyrrolo[1,2-d][1,2,4]triazin-4-yl}amino)piperidin-1-yl]ethan-1-ol] it is 10 to 100 nM.

Consider `O[C@H]1COCC[C@H]1Nc1nnc(-c2ccc(C(F)(F)F)cc2CC(F)(F)F)c2cccn12` [Compound 114, (3R,4R)-4-({1-[2-(2,2,2-trifluoroethyl)-4-(trifluoromethyl)phenyl]pyrrolo[1,2-d][1,2,4]triazin-4-yl}amino)oxan-3-ol], for which the IC50 fell in the range of 1 to 10 nM. With `COc1ccc(-c2nnc(NC3CCNC3=O)n3nc(C)cc23)c(CC(F)(F)F)c1` (stereo not shown) [Compound 386, 3-({4-[4-methoxy-2-(2,2,2-trifluoroethyl)phenyl]-2-methylpyrazolo[1,5-d][1,2,4]triazin-7-yl}amino)pyrrolidin-2-one], the half-inhibitory concentration (IC50) fell in the range of 10 to 100 nM. In the case of `COc1ccc(-c2nnc(NC3CCNC3=O)n3cncc23)c(OC(F)F)c1` (stereo not shown) [Compound 269, 3-({1-[2-(difluoromethoxy)-4-methoxyphenyl]imidazo[1,5-d][1,2,4]triazin-4-yl}amino)pyrrolidin-2-one], the 50% inhibitory concentration (IC50) lay within 1 to 10 nM. For the compound `O[C@@H]1CCCC[C@H]1Nc1nnc(-c2ccc(Br)cc2OC(F)F)c2cncn12` [Compound 306, (1R,2R)-2-({1-[4-bromo-2-(difluoromethoxy)phenyl]imidazo[1,5-d][1,2,4]triazin-4-yl}amino)cyclohexan-1-ol], the IC50 was in the range of 1 to 10 nM. With `C[C@]1(CO)C[C@@H](Nc2nnc(-c3ccc(C(F)(F)F)cc3OC(F)(F)F)c3cncn23)C1` [Compound 340, [(1s,3s)-1-methyl-3-({1-[2-(trifluoromethoxy)-4-(trifluoromethyl)phenyl]imidazo[1,5-d][1,2,4]triazin-4-yl}amino)cyclobutyl]methanol], the IC50 lay in the range of 1 to 10 nM. `COc1ccc(-c2nnc(N[C@@H]3CCCC[C@@]3(C)O)n3cccc23)c(OC(F)(F)F)c1` (single isomer, unassigned) [Compound 181]: the IC50 was at least 300 nM. Turning to `COc1ccc(-c2nnc(N[C@@H]3CCCN(C)C3)n3cncc23)c(OCC(F)(F)F)c1` [Compound 304, 1-[4-methoxy-2-(2,2,2-trifluoroethoxy)phenyl]-N-[(3R)-1-methylpiperidin-3-yl]imidazo[1,5-d][1,2,4]triazin-4-amine], the IC50 was in the range of 1 to 10 nM.
